What was measured:
[1] = test system: Annelid ceramide-glycanase; assay: Substrate specificity and pH optimum of annelid ceramide-glycanase from leeches and earthworms (general description); assay type: biochemical; details: enzyme obtained from leeches and earthworms
[2] = test system: leech ceramide-glycanase; assay: Hydrolysis of glycolipids with leech enzyme (TLC); assay type: biochemical, leech (Hirudo medicinalis, Macrobdella decora); details: 30 nmol substrate, pH 4.5, sodium taurodeoxycholate 200 μg, 37° C.
Protocol: Assays were performed in 10×75 mm glass tubes. […] Glycolipid substrates included LacCer, GbOse3 Cer, GbOse4 Cer, GbOse5 Cer, nLcOse4 Cer, GM3, GM2, GM1, GD1a and GT1. After the mixture was incubated at 37° C. for a preset time, the reaction was terminated by adding 5 volumes of chloroform:methanol (2:1). The mixture was vortexed and briefly centrifuged to separate the organic phase (lower) from the aqueous phase (upper). Under this condition the enzyme protein became insoluble and stayed at the interface. […] For detection of the released oligosaccharide, the aqueous phase was analyzed by thin-layer chromatography using n-butanol:acetic acid:H2 O (2:1:1) as the developing solvent. […] The chromatograms are seen in FIGS. 2 and 3.

[3] = test system: earthworm ceramide-glycanase; assay: Hydrolysis of glycolipids with earthworm enzyme (TLC); assay type: biochemical, Lumbricus terrestris; details: 37° C.; for release of ceramides from the glycolipid by earthworm ceramide-glycanase: one unit enzyme, 17 h, TLC; for hydrolysis of the glycolipid by earthworm ceramide-glycanase: 20 nmol substrate, pH 4.5, sodium taurodeoxycholate 400 μg, 16 hours
Protocol: The assay for ceramide-glycanase was carried out essentially according to the method described above in Example 3. […] Glycolipid substrates included LacCer, GbOse3 Cer, GT1, […] and GlcCer. […] The mixture was vortexed and centrifuged to separate the organic phase (lower) from the aqueous phase (upper). […] For the detection of the released oligosaccharide, the aqueous phase was analyzed by TLC using n-butanol:acetic acid:H2 O (2:1:1) as the developing solvent. […] The chromatograms are seen in FIGS. 5 and 6.

Row | Substance | hydrolysis of the glycosphingolipid by annelid ceramide-glycanase [1] | release of intact oligosaccharide from the glycolipid by leech ceramide-glycanase [2] | release of ceramides from the glycolipid by earthworm ceramide-glycanase [3] | hydrolysis of the glycolipid by earthworm ceramide-glycanase [3]
1 | 3-sulfo-lactosyl ceramide | hydrolyzes |  |  | 
2 | GD1a | hydrolyzes | liberated an intact sialic acid containing oligosaccharide | able to release ceramides | 
3 | Galα1→4GalCer [DiGalCer] |  |  |  | not hydrolyzed
4 | galactosylceramide [GalCer] | will not generally hydrolyze |  |  | refractory
5 | globotetraosyl-ceramide [GbOse4 Cer] | hydrolyzes | able to liberate the intact oligosaccharide | able to release ceramides | 
6 | globotriaosyl-ceramide [GbOse3 Cer] | hydrolyzes | able to liberate the intact oligosaccharide | able to release ceramides | 

More lines, main results first:

Row | hydrolysis of the glycosphingolipid by annelid ceramide-glycanase [1] | Substance | release of intact oligosaccharide from the glycolipid by leech ceramide-glycanase [2] | release of ceramides from the glycolipid by earthworm ceramide-glycanase [3] | hydrolysis of the glycolipid by earthworm ceramide-glycanase [3]
7 | hydrolyzes | globopentaoyl-ceramicde [GbOse5 Cer] | able to liberate the intact oligosaccharide | able to release ceramides | 
8 | will not generally hydrolyze | glucosylceramide [GlcCer] |  |  | refractory
9 | hydrolyzes | lacto-N-neotetraoyl-ceramide [nLcOse4 Cer] | able to liberate the intact oligosaccharide |  | 
10 | hydrolyzes | lactosyl-ceramide [LacCer] | able to liberate the intact oligosaccharide | able to release ceramides | hydrolyzed
